CCc1nc(N)nc(N)c1-c1ccc(Cl)cc1
solubility (mole fraction)
Conditions	278.15 K	283.15 K	288.15 K	293.15 K	298.15 K	303.15 K	308.15 K	313.15 K	318.15 K
in acetone	0.0011	0.00125	0.00147	0.00171	0.0019	0.00215	0.00241	0.00272	0.0033
in acetonitrile	9.12e-05	0.000108	0.000148	0.000198	0.00027	0.000383	0.000469	0.000596	0.000765
in ethanol	0.000603	0.000809	0.000972	0.00109	0.00123	0.00147	0.00181	0.0022	0.00254
in ethyl acetate	0.00141	0.00151	0.0017	0.00194	0.00218	0.00246	0.0029	0.00334	0.00389
in isobutanol	0.000678	0.000904	0.0011	0.00125	0.0014	0.00167	0.00198	0.00238	0.00274
in isopropanol	0.000234	0.000323	0.000456	0.00057	0.000709	0.000853	0.00104	0.00125	0.00152
in isopropyl acetate	0.000583	0.000717	0.000861	0.00107	0.00129	0.00155	0.00185	0.00226	0.00259
in methanol	0.000854	0.0011	0.00131	0.00151	0.00176	0.00203	0.00237	0.00278	0.00332
in methyl acetate	0.000372	0.000482	0.000615	0.000811	0.00105	0.00127	0.00158	0.00186	0.0023
in n-butanol	0.000802	0.000993	0.00124	0.00141	0.00164	0.00192	0.00227	0.00263	0.00317
in n-propanol	0.000712	0.000936	0.00118	0.00135	0.00152	0.00179	0.00211	0.00252	0.00298
in n-propyl acetate	0.000822	0.000952	0.00111	0.00136	0.00154	0.0018	0.0021	0.00243	0.00289
in sec-butanol	0.000398	0.000554	0.000662	0.000824	0.00106	0.0013	0.00164	0.00198	0.00227

Reference: BigSolDB 2.1
